Measurements as given in PubChem BioAssay AID330 (DTP/NCI, 2004).
Values joined by “and” are separate entries in the source; they are usually repeats but may differ in a detail not shown here. Equal entries are not always repeated. Toxic doses and inconclusive results are not listed. How the source made its calls: active means survival T/C of 150% or more; inactive means T/C below 125% in these data.

Tested on: P388 leukemia ip, CD2F1 mice, survival T/C
Experiment: NCI In Vivo Anticancer Drug Screen. Data for tumor model P388 Leukemia (intraperitoneal) in CD2F1 (CDF1) mice
Conditions: endpoint: median survival time, higher = longer survival
Summary of the method: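 Mice carrying the transplanted tumor received test compound or vehicle. Survival was recorded in each group, and the value is the treated-group measurement divided by that of the vehicle-treated control group.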

[1] = dose: 12.5 mg/kg/injection, schedule: Q01DX009 (ip), vehicle: saline
[2] = dose: 25.0 mg/kg/injection, schedule: Q01DX009 (ip), vehicle: saline
[3] = dose: 50.0 mg/kg/injection, schedule: Q01DX009 (ip), vehicle: saline
[4] = dose: 12.5 mg/kg/injection, schedule: Q01DX009 (ip), vehicle: distilled water + Tween-80
[5] = dose: 25.0 mg/kg/injection, schedule: Q01DX009 (ip), vehicle: distilled water + Tween-80
[6] = dose: 50.0 mg/kg/injection, schedule: Q01DX009 (ip), vehicle: distilled water + Tween-80
[7] = dose: 100.0 mg/kg/injection, schedule: Q01DX009 (ip), vehicle: distilled water + Tween-80
[8] = dose: 50.0 mg/kg/injection, schedule: Q01DX005 (ip), vehicle: saline with Tween-80
[9] = dose: 100.0 mg/kg/injection, schedule: Q01DX005 (ip), vehicle: saline with Tween-80
[10] = dose: 200.0 mg/kg/injection, schedule: Q01DX005 (ip), vehicle: saline with Tween-80
[11] = dose: 50.0 mg/kg/injection, schedule: Q01DX009 (ip), vehicle: saline with Tween-80
[12] = dose: 100.0 mg/kg/injection, schedule: Q01DX009 (ip), vehicle: saline with Tween-80
[13] = dose: 200.0 mg/kg/injection, schedule: Q01DX009 (ip), vehicle: saline with Tween-80
[14] = dose: 50.0 mg/kg/injection, schedule: Q01DX009 (ip), vehicle: Klucel (hydroxypropylcellulose) (HPC)
[15] = dose: 100.0 mg/kg/injection, schedule: Q01DX009 (ip), vehicle: Klucel (hydroxypropylcellulose) (HPC)
[16] = dose: 200.0 mg/kg/injection, schedule: Q01DX009 (ip), vehicle: Klucel (hydroxypropylcellulose) (HPC)
[17] = dose: 60.0 mg/kg/injection, schedule: Q01DX005 (ip), vehicle: saline with Tween-80
[18] = dose: 120.0 mg/kg/injection, schedule: Q01DX005 (ip), vehicle: saline with Tween-80
[19] = dose: 240.0 mg/kg/injection, schedule: Q01DX005 (ip), vehicle: saline with Tween-80
[20] = dose: 6.25 mg/kg/injection, schedule: Q01DX009 (ip), vehicle: saline with Tween-80

Measured: T/C

CCN(CC)CCSCCCN=c1c2ccc(Cl)cc2n(O)c2ccc(OC)nc12
inactive: dose: 50.0 mg/kg/injection, schedule: Q01DX009 (ip), vehicle: saline + alcohol 115 % of control | dose: 100.0 mg/kg/injection, schedule: Q01DX009 (ip), vehicle: saline + alcohol 112 % of control

O=C1c2ccccc2C(=O)c2c1ccc1c2[nH]c2cc(Cl)c(Cl)cc21
inactive: dose: 50.0 mg/kg/injection, schedule: Q01DX005 (ip), vehicle: Klucel + Tween-80 98 % of control | dose: 100.0 mg/kg/injection, schedule: Q01DX005 (ip), vehicle: Klucel + Tween-80 91 % of control | dose: 200.0 mg/kg/injection, schedule: Q01DX005 (ip), vehicle: Klucel + Tween-80 98 % of control

O=C(c1cc(F)ccc1Nc1ccccc1)N1CCOCC1
inactive: [1] 98 % of control | [2] 100 % of control | [3] 98 % of control and 109 % of control

Cn1cc(C(=O)O)c(=O)c2ccc(/C=C/c3ccc([N+](=O)[O-])o3)nc21
inactive: dose: 3.12 mg/kg/injection, schedule: Q01DX009 (ip), vehicle: saline 92 % of control | dose: 6.25 mg/kg/injection, schedule: Q01DX009 (ip), vehicle: saline 97 % of control | [1] 111 % of control | [2] 103 % of control

CCC[CH2][Sn]([CH3])([CH2]CC[N+](C)(C)C)[O]C(C)=O (centres undefined)
inactive: [1] 105 % of control | [2] 106 % of control | [3] 100 % of control and 115 % of control

O=c1c2ccccc2nnn1OCc1ccccc1
inactive: [4] 100 % of control | [5] 103 % of control | [6] 97 % of control | [7] 101 % of control | dose: 200.0 mg/kg/injection, schedule: Q01DX009 (ip), vehicle: distilled water + Tween-80 103 % of control

[Cl][Eu][Cl]
inactive: [3] 87 % of control | dose: 100.0 mg/kg/injection, schedule: Q01DX009 (ip), vehicle: saline 91 % of control

Cc1[nH]nc2c1CC(c1ccccc1)NC2=O (centres undefined)
inactive: [8] 92 % of control | [9] 94 % of control | [10] 94 % of control

CNC(=O)N(C)C1OC(CO)C(O)C1O (centres undefined)
inactive: dose: 100.0 mg/kg/injection, schedule: Q04DX003 (ip), vehicle: water 113 % of control | dose: 200.0 mg/kg/injection, schedule: Q04DX003 (ip), vehicle: water 119 % of control | dose: 400.0 mg/kg/injection, schedule: Q04DX003 (ip), vehicle: water 119 % of control

CN(C)CCc1ccc2ccc3cccc4ccc1c2c34
inactive: [11] 107 % of control | [12] 102 % of control | [13] 108 % of control

CC1CCCCN1C(=S)Nc1ccc(S(=O)(=O)N2CCCCC2)cc1 (centres undefined)
inactive: [14] 94 % of control | [15] 101 % of control | [16] 92 % of control

CSc1cccc(NC(=O)OCCOc2ccc(Cl)c(C)c2)c1
inactive: [14] 92 % of control | [15] 97 % of control | [16] 92 % of control

O=C(N/N=C/c1ccccn1)N/N=C/c1ccccn1
inactive: [4] 102 % of control | [5] 103 % of control | [6] 113 % of control | [7] 104 % of control

CCOc1cc2cc(CCC#N)c(C)cc2cn1
inactive: [4] 93 % of control | [5] 87 % of control | [6] 87 % of control

O=C(NO)c1ccccc1
inactive: dose: 25.0 mg/kg/injection, schedule: Q01DX009 (ip), vehicle: Klucel (hydroxypropylcellulose) (HPC) 98 % of control | dose: 50.0 mg/kg/injection, schedule: Q01DX001 (ip), vehicle: saline 102 % of control | [14] 98 % of control | [11] 103 % of control | dose: 50.0 mg/kg/injection, schedule: Q04DX003 (ip), vehicle: saline with Tween-80 106 % of control | dose: 100.0 mg/kg/injection, schedule: Q01DX001 (ip), vehicle: saline 102 % of control | [15] 107 % of control | dose: 100.0 mg/kg/injection, schedule: Q04DX003 (ip), vehicle: saline with Tween-80 102 % of control | [16] 116 % of control | [13] 103 % of control | dose: 200.0 mg/kg/injection, schedule: Q04DX003 (ip), vehicle: saline with Tween-80 102 % of control | dose: 400.0 mg/kg/injection, schedule: Q01DX009 (ip), vehicle: Klucel (hydroxypropylcellulose) (HPC) 114 % of control | dose: 400.0 mg/kg/injection, schedule: Q04DX003 (ip), vehicle: saline with Tween-80 109 % of control

O=C1NC(=Nc2ccccc2)N(c2ccccc2)C1=Nc1ccccc1
inactive: [11] 88 % of control | [12] 91 % of control | [13] 86 % of control

Cc1c(N=O)c(-c2ccccc2)n(O)[n+]1[O-]
inactive: [17] 102 % of control | [18] 101 % of control | [19] 102 % of control

CN1CCN(N=Nc2ccccc2Cl)CC1
inactive: [1] 99 % of control | [2] 111 % of control | [3] 103 % of control and 98 % of control

CCCC(=O)c1ccco1
inactive: [20] 88 % of control | dose: 12.5 mg/kg/injection, schedule: Q01DX009 (ip), vehicle: saline with Tween-80 95 % of control | dose: 25.0 mg/kg/injection, schedule: Q01DX009 (ip), vehicle: saline with Tween-80 95 % of control

CSC(=NCCCCCCCCN=C(NC#N)SC)NC#N
inactive: [14] 94 % of control | [15] 102 % of control | [16] 95 % of control

COc1ccc(OC)c2c(C)c(C)c(Cl)nc12
inactive: dose: 100.0 mg/kg/injection, schedule: Q01DX001 (ip), vehicle: Klucel (hydroxypropylcellulose) (HPC) 92 % of control | dose: 200.0 mg/kg/injection, schedule: Q01DX001 (ip), vehicle: Klucel (hydroxypropylcellulose) (HPC) 107 % of control | dose: 400.0 mg/kg/injection, schedule: Q01DX001 (ip), vehicle: Klucel (hydroxypropylcellulose) (HPC) 95 % of control

Nc1c(C(=O)Nc2ccc3c(c2)C(=O)c2ccccc2C3=O)ccc2c1C(=O)c1ccccc1C2=O
inactive: dose: 50.0 mg/kg/injection, schedule: Q01DX005 (ip), vehicle: Klucel (hydroxypropylcellulose) (HPC) 107 % of control | dose: 100.0 mg/kg/injection, schedule: Q01DX005 (ip), vehicle: Klucel (hydroxypropylcellulose) (HPC) 90 % of control | dose: 200.0 mg/kg/injection, schedule: Q01DX005 (ip), vehicle: Klucel (hydroxypropylcellulose) (HPC) 100 % of control

O=C(NN1C(=O)CSC1c1ccccc1F)c1ccncc1 (centres undefined)
inactive: [8] 93 % of control | [9] 108 % of control | [10] 97 % of control

C=C=C(C)CN(CC)CC
inactive: dose: 50.0 mg/kg/injection, schedule: Q01DX005 (ip), vehicle: saline 108 % of control | dose: 100.0 mg/kg/injection, schedule: Q01DX005 (ip), vehicle: saline 107 % of control | dose: 200.0 mg/kg/injection, schedule: Q01DX005 (ip), vehicle: saline 108 % of control

COc1ccc(S(=O)(=O)N/N=C/c2ncc[nH]2)cc1
inactive: dose: 25.0 mg/kg/injection, schedule: Q01DX005 (ip), vehicle: saline with Tween-80 99 % of control | [8] 99 % of control | [9] 100 % of control

C/C(=N\NC(=S)N(C)C)c1ccccn1
inactive: [20] 100 % of control

C=C1C(=O)OC2CC(C)CCC/C(CO)=C/C(OC(=O)/C(=C/CO)CO)C12 (centres undefined)
inactive: dose: 7.0 mg/kg/injection, schedule: Q01DX005 (ip), vehicle: saline 98 % of control | dose: 14.0 mg/kg/injection, schedule: Q01DX005 (ip), vehicle: saline 101 % of control | dose: 28.0 mg/kg/injection, schedule: Q01DX005 (ip), vehicle: saline 114 % of control

CC(C)N(C(C)C)P1P(N(C(C)C)C(C)C)P(N(C(C)C)C(C)C)P1N(C(C)C)C(C)C (centres undefined)
inactive: [17] 88 % of control | [18] 86 % of control | [19] 89 % of control

CCN(CC)[Si](C)(C)C
inactive: dose: 60.0 mg/kg/injection, schedule: Q01DX005 (ip), vehicle: saline 93 % of control | dose: 120.0 mg/kg/injection, schedule: Q01DX005 (ip), vehicle: saline 94 % of control

CCOC(=O)c1ccc(-n2c(C)nc3ccc(Br)cc3c2=O)cc1
inactive: [17] 98 % of control | [18] 95 % of control | [19] 100 % of control
